Consider 3 compounds from PMC11232109, “Synthesis, anticancer evaluation of novel hybrid pyrazole-based chalcones, molecular docking, DNA fragmentation, and gene expression: in vitro studies” (RSC Advances, 2024).

Read-outs that look alike come from different tables or passages of the source.

Data set [1] is described as follows: MTT assay, normal cell line BJ1. The data set is classed as cell-based. The conditions noted are these: human, at 100 μg ml^−1, 48 hours, read-out: (%) Mortality of BJ1. The protocol: (§1) The percentage of the cell viability treated with the newly synthesized compounds was evaluated using MTT assay (3-(4,5-dimethylthiazol-2-yl)-2,5-diphenyl tetrazolium bromide). All the subsequent steps were done in a sterile Laminar flow class II biosafety cabinet (Baker, SG406INT, Sanford, ME, USA). DMEM was used as a suspension medium for breast cancer (MCF7), prostate cancer (PC3), and pancreatic cancer (PACA2), while normal cell line (BJ1) was suspended in DMEM-F12 medium, a 1% antibiotic-antimycotic mixture (10 000 U ml^−1 potassium penicillin, 10 000 μg ml^−1 streptomycin sulfate, and 25 μg ml^−1 amphotericin B), and 1% L-glutamine at 37 °C under 5% CO2.
(§2) Cells were cultured for 10 days and then seeded at a concentration of 10 × 10^4 cells per well in fresh complete growth medium in 96-well microtiter plastic plates at 37 °C for 24 hours under 5% CO2 using a water-jacketed carbon dioxide incubator (Sheldon, TC2323). Media were aspirated, serum-free fresh medium was added, and cells were incubated either alone (negative control) or with different concentrations of the synthesized chalcone derivatives to a final concentration of (100–50–25–12.5–6.25–3.125–0.78 and 1.56 μg ml^−1). After incubation for 48 hours, the medium was aspirated and 40 μl of MTT salt ([…]) was added to each well and incubated for another four hours at 37 °C under 5% CO2. To stop the reaction and dissolve the formed crystals, 200 μl of 10% sodium dodecyl sulfate (SDS) in deionized water was added to each well and incubated overnight at 37 °C.
(§3) The absorbance was then measured at 595 nm and a reference wavelength of 620 nm using a microplate multi-well reader (Bio-Rad Laboratories Inc., model 3350). Statistical significance was tested between the samples and the negative control (cells with vehicle) using an independent t-test using the SPSS 11 program. DMSO was the vehicle used for the dissolution of the synthesized chalcones, and its final concentration on the cells was less than 0.2%. The percentage of change in viability was calculated according to the formula: ((reading of extract/reading of negative control) − 1) × 100. A Probit analysis was carried out for the determination of IC50 using the SPSS 11 program.

For data set [2], the system named is PACA2 (pancreatic carcinoma). As to the kind of experiment: MTT assay, PACA2. It is filed as cell-based. The conditions noted are these: for cytotoxicity at 100 µg/mL / IC50: Homo sapiens; for IC50: 48 hours. On the procedure:
as §1, §2, §3
A general note: Tetrazolium dyes change colour on reduction, which living cells bring about.

Data set [3] has as its system MCF7 (human breast adenocarcinoma). As to the kind of experiment: MTT assay, MCF7. It is filed as cell-based. The conditions noted are these: for cytotoxicity at 100 µg/mL / IC50: Homo sapiens; for IC50: 48 hours. On the procedure: as §1, §2, §3
Data set [4] has as its system PC3 (prostatic cancer). As to the kind of experiment: MTT assay, PC3. The data set is classed as cell-based. The protocol: as §1, §2, §3
For data set [5], the system named is CCND1. As to the kind of experiment: qPCR gene expression of CCND1 in PACA2 cells. It is filed as cell-based, human. The conditions noted are these: treatment with IC50 conc., negative control = 1. On the procedure:
Total RNA was isolated from breast and pancreatic cancer cell lines according to the manufacturer's protocol using RNeasy Mini Kit (Qiagen) supplemented with the DNaseI (Qiagen) digestion step. To digest DNA residues, the isolated total RNA was treated with one unit of RQ1 RNAse-free DNAse (Invitrogen), re-suspended in DEPC-treated water, and quantified using a spectrophotometer at 260 nm. The purity of total RNA was assessed by the 260/280 nm ratio, which was between 1.8 and 2.1. Moreover, RNA integrity was assured by ethidium bromide-stain analysis of 28S and 18S bands by formaldehyde-containing agarose gel electrophoresis. Complete poly(A)+ RNA isolated from breast and pancreatic cell lines was reverse-transcribed into cDNA in a total volume of 20 μl using the RevertAidTM First Strand cDNA Synthesis Kit (Fermentas). […] Subsequently, the reaction tubes containing RT preparations were flash-cooled in an ice chamber until used for cDNA amplification using a quantitative real-time polymerase chain reaction (qRT-PCR).
Determination of the breast and pancreatic cell line cDNA copy number was carried out using the StepOne™ Real-Time PCR system from Applied Biosystems (Thermo Fisher Scientific). […] The relative quantification of the target to the reference was performed using the 2^−ΔΔCT method (Yang et al., 2017).[51]
A general note: Quantitative PCR measures a nucleic acid by following its amplification.

As for `Cc1nn(-c2ccccc2)c(C=CC(=O)c2c(-c3cccs3)nn(-c3ccc([N+](=O)[O-])cc3)c2C)c1Cl` [Compound 7d, 3-(4-Chloro-3-methyl-1-phenyl-1H-pyrazol-5-yl)-1-(5-methyl-1-(4-nitrophenyl)-3-(thiophen-2-yl)-1H-pyrazol-4-yl)prop-2-en-1-one], the cytotoxicity at 48 h, 100 μg ml^−1 in data set [1] (BJ1 normal skin fibroblasts) turned out to be 12.3 ± 0.23%. Further, the cytotoxicity at 100 µg/mL in data set [2] (PaCa-2, 48 h, at 100 μg ml^−1, 48 hours, MTT, read-out: (%) Mortality of PACA2) fell in the range of 70 to 80%; in data set [3] (MCF7, 48 h, at 100 μg ml^−1, 48 hours, MTT, read-out: (%) Mortality of MCF7), 70 to 80%; in data set [4] (Homo sapiens, 48 h, at 100 μg ml^−1, 48 hours, MTT, read-out: (%) Mortality of PC3), 70 to 80%. Besides, the IC50 came out at 51.9 ± 0.29 µM in data set [2] (PaCa-2, MTT); 42.6 ± 0.71 µM in data set [3] (MCF7, MTT); 66.9 ± 0.98 µM in data set [4] (Homo sapiens, MTT, 48 hours). The cytotoxicity in data set [2] (at 100 μg ml^−1, 48 hours, MTT, read-out: (%) Mortality of PACA2) came to 80.3 ± 19%; in data set [3] (at 100 μg ml^−1, 48 hours, MTT, read-out: (%) Mortality of MCF7), 71.2 ± 0.14%; in data set [4] (at 100 μg ml^−1, 48 hours, MTT, read-out: (%) Mortality of PC3), 70.6 ± 0.97%.
Regarding `Cc1c(C(=O)C=Cc2nn(-c3ccccc3)cc2-c2ccc([N+](=O)[O-])cc2)c(-c2cccs2)nn1-c1ccc([N+](=O)[O-])cc1` [Compound 9e, 1-(5-Methyl-1-(4-nitrophenyl)-3-(thiophen-2-yl)-1H-pyrazol-4-yl)-3-(4-(4-nitrophenyl)-1-phenyl-1H-pyrazol-3-yl)prop-2-en-1-one], the “Gene expression CCND1” value in data set [5] came out at 0.64 fold change/GAPDH. In data set [1], the cytotoxicity at 48 h, 100 μg ml^−1 is 5.6 ± 0.55%. In addition, the cytotoxicity at 100 µg/mL is 100% in data set [2] (PaCa-2, 48 h, read-out: (%) Mortality of PACA2); 14.2 ± 0.37% in data set [3] (MCF7, 48 h, read-out: (%) Mortality of MCF7); 5.3 ± 0.94% in data set [4] (Homo sapiens, 48 h, read-out: (%) Mortality of PC3). Besides, the IC50 was found to be 27.6 ± 0.33 µM in data set [2] (PaCa-2, MTT) and 59.3 ± 0.85 µM in data set [3] (MCF7, MTT).
In the case of `COc1cccc2c1C(=O)c1c(O)c3c(c(O)c1C2=O)C[C@@](O)(C(=O)CO)C[C@@H]3O[C@H]1C[C@H](N)[C@H](O)[C@H](C)O1` [Doxorubicin, reference compound], the “Gene expression CCND1” value in data set [5] was 0.79 fold change/GAPDH. The cytotoxicity at 48 h, 100 μg ml^−1 in data set [1] (BJ1 normal skin fibroblasts) was 100%. Further, the cytotoxicity at 100 µg/mL in data set [2] (PaCa-2, at 100 μg ml^−1, 48 hours, MTT, read-out: (%) Mortality of PACA2) was found to be 100%; in data set [3] (MCF7, at 100 μg ml^−1, 48 hours, MTT, read-out: (%) Mortality of MCF7), 100%; in data set [4] (Homo sapiens, at 100 μg ml^−1, 48 hours, MTT, read-out: (%) Mortality of PC3) it was 100%. The IC50 in data set [3] (MCF7, MTT) was found to be 48 ± 0.74 µM.

In general, IC50 refers to the concentration needed to halve the response being measured. Lower therefore signals higher potency.
